One experiment deals with T1, mutant LRRK2 (G2019S) (Homo sapiens, UniProt Q5S007, G2019S).
T1 construct: DNA tag for qPCR detection (not a peptide; the protein part that carries it is not described); made in house; host or cells: HEK 293 cells (the same paragraph also describes T7 phage grown in E. coli BL21)
Description: Inhibitory activity against LRRK2: competition binding to ligand-affinity beads, DNA-tagged kinase quantitated by qPCR. The conditions noted are these: 100 nM compound; % of ctrl; read-out: Remaining kinase activity(%) at 100 nM LRRK2(G2019Smutant). The method in brief:
(§1)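 Human LRRK2 H970–E2527, wild type or G2019S, was expressed as DNA-tagged kinase (T7 phage in E. coli or HEK293) and competed for 1 h against a biotinylated ligand on streptavidin beads. Bound kinase was eluted with 0.5 µM free ligand and quantified by qPCR. Values are % of control at 100 nM (both forms) and at 10 and 50 nM (wild type).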

The target of a further experiment is T2, wild-type LRRK2 (Homo sapiens, UniProt Q5S007).
T2 construct: DNA tag for qPCR detection (not a peptide; the protein part that carries it is not described); made in house; host or cells: HEK 293 cells (the same paragraph also describes T7 phage grown in E. coli BL21)
The description is as above. The conditions noted are these: 100 nM compound; % of ctrl; read-out: Remaining kinase activity(%) at 100 nM LRRK2(WT). The method in brief: as §1

T1 sequence (Q5S007 970-2527 G2019S): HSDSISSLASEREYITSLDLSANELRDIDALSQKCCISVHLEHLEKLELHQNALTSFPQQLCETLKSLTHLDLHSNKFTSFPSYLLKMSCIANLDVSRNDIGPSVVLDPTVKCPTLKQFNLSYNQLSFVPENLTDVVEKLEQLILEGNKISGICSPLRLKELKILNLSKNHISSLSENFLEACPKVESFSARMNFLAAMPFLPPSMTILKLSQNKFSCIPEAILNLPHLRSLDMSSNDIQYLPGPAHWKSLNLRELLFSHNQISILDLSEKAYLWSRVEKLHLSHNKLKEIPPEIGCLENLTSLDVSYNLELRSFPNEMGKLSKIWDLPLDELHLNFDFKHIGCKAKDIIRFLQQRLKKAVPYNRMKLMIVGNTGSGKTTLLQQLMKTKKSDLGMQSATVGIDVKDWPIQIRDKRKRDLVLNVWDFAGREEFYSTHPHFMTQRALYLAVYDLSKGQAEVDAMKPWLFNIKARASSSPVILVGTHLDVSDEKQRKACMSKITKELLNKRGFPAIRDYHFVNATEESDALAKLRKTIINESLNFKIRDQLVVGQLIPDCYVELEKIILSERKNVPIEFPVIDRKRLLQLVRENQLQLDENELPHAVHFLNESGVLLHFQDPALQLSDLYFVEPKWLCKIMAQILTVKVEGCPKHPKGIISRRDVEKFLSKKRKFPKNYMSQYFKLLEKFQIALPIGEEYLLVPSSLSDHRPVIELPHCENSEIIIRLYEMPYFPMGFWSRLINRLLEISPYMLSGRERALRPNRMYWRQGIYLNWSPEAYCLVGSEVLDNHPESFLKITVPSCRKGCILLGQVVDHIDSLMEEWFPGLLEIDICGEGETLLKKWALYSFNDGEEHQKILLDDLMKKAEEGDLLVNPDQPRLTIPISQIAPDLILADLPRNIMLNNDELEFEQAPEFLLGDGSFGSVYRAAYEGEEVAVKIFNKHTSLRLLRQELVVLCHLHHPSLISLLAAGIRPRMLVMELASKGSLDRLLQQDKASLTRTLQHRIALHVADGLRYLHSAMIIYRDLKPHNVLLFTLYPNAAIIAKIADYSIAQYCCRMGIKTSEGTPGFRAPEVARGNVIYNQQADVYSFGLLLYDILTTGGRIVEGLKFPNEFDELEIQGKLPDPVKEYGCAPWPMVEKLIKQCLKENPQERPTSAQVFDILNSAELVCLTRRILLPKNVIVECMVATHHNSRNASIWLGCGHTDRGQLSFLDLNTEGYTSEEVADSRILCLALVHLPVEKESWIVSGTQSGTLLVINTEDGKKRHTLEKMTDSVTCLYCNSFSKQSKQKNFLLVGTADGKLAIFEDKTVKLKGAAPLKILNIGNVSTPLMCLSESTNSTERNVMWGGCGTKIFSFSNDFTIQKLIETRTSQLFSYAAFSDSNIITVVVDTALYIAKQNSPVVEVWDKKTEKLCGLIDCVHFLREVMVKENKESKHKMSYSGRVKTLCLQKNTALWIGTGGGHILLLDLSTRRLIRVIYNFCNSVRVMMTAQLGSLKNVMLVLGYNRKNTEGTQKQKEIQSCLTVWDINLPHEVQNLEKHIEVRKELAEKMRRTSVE
T2 sequence (Q5S007 970-2527): as the sequence (Q5S007 970-2527 G2019S) above, with S1050G counted along it

For `COc1cc(C(=O)NC(C)(C)C)ccc1Nc1ncc(Cl)c(-c2cnn(C)c2)n1` [Compound 25, N-(tert-butyl)-4-((5-chloro-4-(1-methyl-1H-pyrazol-4-yl)pyrimidin-2-yl)amino)-3-methoxybenzamide], the results for the remaining binding at 0.1 µM on mutant LRRK2 (G2019S) and at wild-type LRRK2 were less than 50% and less than 30%, respectively.
For `COc1cc(C(=O)NCC(C)(C)O)ccc1Nc1ncc(Cl)c(-c2cnn(C)c2)n1` [Compound 26, 4-((5-chloro-4-(1-methyl-1H-pyrazol-4-yl)pyrimidin-2-yl)amino)-N-(2-hydroxy-2-methylpropyl)-3-methoxybenzamide] the same measures were less than 50% and less than 50%.
On to `COc1cc(C(=O)N2CCOCC2)ccc1Nc1ncc(Cl)c(-c2cnn(C(C)(C)CC#N)c2)n1` [Compound 27, 3-(4-(5-chloro-2-((2-methoxy-4-(morpholine-4-carbonyl)phenyl)amino)pyrimidin-4-yl)-1H-pyrazol-1-yl)-3-methylbutanenitrile], for which the remaining binding at 0.1 µM at mutant LRRK2 (G2019S) and at wild-type LRRK2 was less than 10% throughout.
For the molecule `COCCn1cc(-c2nc(Nc3ccc(C(=O)N4CCOCC4)cc3OC)ncc2Cl)cn1` [Compound 28, (4-((5-chloro-4-(1-(2-methoxyethyl)-1H-pyrazol-4-yl)pyrimidin-2-yl)amino)-3-methoxyphenyl)(morpholino)methanone], the remaining binding at 0.1 µM at mutant LRRK2 (G2019S) and at wild-type LRRK2 was less than 30% in each case.
For the molecule `COc1cc(C(=O)N2CCOCC2)ccc1Nc1ncc(C(F)(F)F)c(-c2cnn(C3CCOCC3)c2)n1` [Compound 29, (3-methoxy-4-((4-(1-(tetrahydro-2H-pyran-4-yl)-1H-pyrazol-4-yl)-5-(trifluoromethyl)pyrimidin-2-yl)amino)phenyl)(morpholino)methanone], the remaining binding at 0.1 µM on mutant LRRK2 (G2019S) is less than 30%; on wild-type LRRK2, less than 50%.
The like results for `COc1cc(C(=O)N2CCC(N3CCN(C)CC3)CC2)ccc1Nc1ncc(C(F)(F)F)c(-c2cnn(C)c2)n1` [Compound 31, (3-methoxy-4-((4-(1-methyl-1H-pyrazol-4-yl)-5-(trifluoromethyl)pyrimidin-2-yl)amino)phenyl)(4-(4-methylpiperazin-1-yl)piperidin-1-yl)methanone] were, in that order, less than 30% and less than 10%.
For `COc1cc(C(=O)N2CCC3(CC2)COC3)ccc1Nc1ncc(Cl)c(-c2cnn(C)c2)n1` [Compound 32, (4-((5-chloro-4-(1-methyl-1H-pyrazol-4-yl)pyrimidin-2-yl)amino)-3-methoxyphenyl)(2-oxa-7-azaspiro[3.5]nonan-7-yl)methanone], the remaining binding at 0.1 µM is less than 30% on mutant LRRK2 (G2019S) and less than 50% on wild-type LRRK2.
Consider `COc1cc(C(=O)N2CC3(CCO3)C2)ccc1Nc1ncc(Cl)c(-c2cnn(C)c2)n1` [Compound 33, (4-((5-chloro-4-(1-methyl-1H-pyrazol-4-yl)pyrimidin-2-yl)amino)-3-methoxyphenyl)(1-oxa-6-azaspiro[3.3]heptan-6-yl)methanone], for which the remaining binding at 0.1 µM at mutant LRRK2 (G2019S) is less than 50%; at wild-type LRRK2 it was less than 30%.
Consider `COc1cc(C(=O)N2CCN(C(C)C)CC2)ccc1Nc1ncc(Cl)c(-c2cnn(C)c2)n1` [Compound 34, (4-((5-chloro-4-(1-methyl-1H-pyrazol-4-yl)pyrimidin-2-yl)amino)-3-methoxyphenyl)(4-isopropylpiperazin-1-yl)methanone], for which the remaining binding at 0.1 µM on mutant LRRK2 (G2019S) is less than 30%; at wild-type LRRK2 it was less than 10%.
For `COc1cc(C(=O)N2CCC3(CC2)COC3)ccc1Nc1ncc(Cl)c(-c2cnn(C3CCOCC3)c2)n1` [Compound 35, (4-((5-chloro-4-(1-(tetrahydro-2H-pyran-4-yl)-1H-pyrazol-4-yl)pyrimidin-2-yl)amino)-3-methoxyphenyl)(2-oxa-7-azaspiro[3.5]nonan-7-yl)methanone] the same measures were less than 10% and less than 30%.
`COc1cc(C(=O)NC2CCN(C)CC2)ccc1Nc1ncc(Cl)c(-c2cnn(C)c2)n1` [Compound 38, 4-((5-chloro-4-(1-methyl-1H-pyrazol-4-yl)pyrimidin-2-yl)amino)-3-methoxy-N-(1-methylpiperidin-4-yl)benzamide]: the remaining binding at 0.1 µM on mutant LRRK2 (G2019S) and on wild-type LRRK2 was less than 10% each time.
With `COc1cc(C(=O)N2CCC(F)(F)CC2)ccc1Nc1ncc(Cl)c(-c2cnn(C)c2)n1` [Compound 41, (4-((5-chloro-4-(1-methyl-1H-pyrazol-4-yl)pyrimidin-2-yl)amino)-3-methoxyphenyl)(4,4-difluoropiperidin-1-yl)methanone], the remaining binding at 0.1 µM at mutant LRRK2 (G2019S) was less than 50%; at wild-type LRRK2, less than 30%.
As for `COc1cc(C(=O)N2CCOC(C)(C)C2)ccc1Nc1ncc(Cl)c(-c2cnn(C)c2)n1` [Compound 42, (4-((5-chloro-4-(1-methyl-1H-pyrazol-4-yl)pyrimidin-2-yl)amino)-3-methoxyphenyl)(2,2-dimethylmorpholino)methanone], the remaining binding at 0.1 µM is less than 50% on mutant LRRK2 (G2019S) and less than 30% at wild-type LRRK2.
For the molecule `COc1cc(C(=O)N2CC(N3CCOCC3)C2)ccc1Nc1ncc(Cl)c(-c2cnn(C)c2)n1` [Compound 43, (4-((5-chloro-4-(1-methyl-1H-pyrazol-4-yl)pyrimidin-2-yl)amino)-3-methoxyphenyl)(3-morpholinoazetidin-1-yl)methanone], the remaining binding at 0.1 µM was less than 30% on mutant LRRK2 (G2019S) and less than 10% at wild-type LRRK2.
On to `COc1cc(C(=O)N2CCN(C(C)=O)CC2)ccc1Nc1ncc(Cl)c(-c2cnn(C)c2)n1` [Compound 44, 1-(4-(4-((5-chloro-4-(1-methyl-1H-pyrazol-4-yl)pyrimidin-2-yl)amino)-3-methoxybenzoyl)piperazin-1-yl)ethan-1-one], for which the remaining binding at 0.1 µM on mutant LRRK2 (G2019S) was less than 30%; at wild-type LRRK2 it was less than 10%.
Turning to `COc1cc(C(=O)N2CCN(C(C)C)CC2)ccc1Nc1ncc(C(F)(F)F)c(-c2cnn(C)c2)n1` [Compound 45, (4-isopropylpiperazin-1-yl)(3-methoxy-4-((4-(1-methyl-1H-pyrazol-4-yl)-5-(trifluoromethyl)pyrimidin-2-yl)amino)phenyl)methanone], the remaining binding at 0.1 µM at mutant LRRK2 (G2019S) and at wild-type LRRK2 was less than 30% each time.
Take `COc1cc(C(=O)N2CCOCC2)c(F)cc1Nc1ncc(C(F)(F)F)c(-c2cnn(C)c2)n1` [Compound 46, (2-fluoro-5-methoxy-4-((4-(1-methyl-1H-pyrazol-4-yl)-5-(trifluoromethyl)pyrimidin-2-yl)amino)phenyl)(morpholino)methanone]: the remaining binding at 0.1 µM at mutant LRRK2 (G2019S) and on wild-type LRRK2 was less than 10% in each case.
Take `COc1cc(C(=O)N2CCOCC2)c(F)cc1Nc1ncc(Cl)c(-c2cnn(C(C)C)c2)n1` [Compound 49, (4-((5-chloro-4-(1-isopropyl-1H-pyrazol-4-yl)pyrimidin-2-yl)amino)-2-fluoro-5-methoxyphenyl)(morpholino)methanone]: the remaining binding at 0.1 µM on mutant LRRK2 (G2019S) and at wild-type LRRK2 was less than 10% throughout.
For `COc1cc(C(=O)N2CCN(C3COC3)CC2)ccc1Nc1ncc(Cl)c(-c2cnn(C)c2)n1` [Compound 50, (4-((5-chloro-4-(1-methyl-1H-pyrazol-4-yl)pyrimidin-2-yl)amino)-3-methoxyphenyl)(4-(oxetan-3-yl)piperazin-1-yl)methanone], the remaining binding at 0.1 µM on mutant LRRK2 (G2019S) and at wild-type LRRK2 was less than 10% throughout.
As to `COc1cc(C(=O)N2C[C@H]3CC[C@@H](C2)O3)ccc1Nc1ncc(Cl)c(-c2cnn(C)c2)n1` [Compound 51, ((1R,5S)-8-oxa-3-azabicyclo[3.2.1]octan-3-yl)(4-((5-chloro-4-(1-methyl-1H-pyrazol-4-yl)pyrimidin-2-yl)amino)-3-methoxyphenyl)methanone], the remaining binding at 0.1 µM at mutant LRRK2 (G2019S) and at wild-type LRRK2 was less than 30% throughout.
Turning to `COc1cc(C(=O)c2ccncc2)ccc1Nc1ncc(Cl)c(-c2cnn(C(C)C)c2)n1` [Compound 54, (4-((5-chloro-4-(1-isopropyl-1H-pyrazol-4-yl)pyrimidin-2-yl)amino)-3-methoxyphenyl)(pyridin-4-yl)methanone], the results for the remaining binding at 0.1 µM on mutant LRRK2 (G2019S) and on wild-type LRRK2 were less than 30% and less than 50%, respectively.
Consider `CCn1cc(-c2nc(Nc3ccc(C(=O)N4CCOCC4)cc3OC)ncc2Cl)cn1` [Compound 56, (4-((5-chloro-4-(1-ethyl-1H-pyrazol-4-yl)pyrimidin-2-yl)amino)-3-methoxyphenyl)(morpholino)methanone], for which the remaining binding at 0.1 µM at mutant LRRK2 (G2019S) and at wild-type LRRK2 was less than 10% throughout.
As to `CCCn1cc(-c2nc(Nc3ccc(C(=O)N4CCOCC4)cc3OC)ncc2Cl)cn1` [Compound 57, (4-((5-chloro-4-(1-propyl-1H-pyrazol-4-yl)pyrimidin-2-yl)amino)-3-methoxyphenyl)(morpholino)methanone], the remaining binding at 0.1 µM on mutant LRRK2 (G2019S) and on wild-type LRRK2 was less than 10% throughout.
On to `COc1cc(C(=O)N2CCOCC2)ccc1Nc1ncc(Cl)c(-c2cnn(C3CC3)c2)n1` [Compound 58, (4-((5-chloro-4-(1-cyclopropyl-1H-pyrazol-4-yl)pyrimidin-2-yl)amino)-3-methoxyphenyl)(morpholino)methanone], for which the figures for the remaining binding at 0.1 µM at mutant LRRK2 (G2019S) and at wild-type LRRK2 were less than 10% and less than 30%, respectively.
`COc1cc(C(=O)N2CCOCC2)ccc1Nc1ncc(Cl)c(-c2cnn(C(C)(C)C)c2)n1` [Compound 59, (4-((4-(1-(tert-butyl)-1H-pyrazol-4-yl)-5-chloropyrimidin-2-yl)amino)-3-methoxyphenyl)(morpholino)methanone]: the remaining binding at 0.1 µM at mutant LRRK2 (G2019S) and on wild-type LRRK2 was less than 10% each time.

The values are drawn from patent US20240254103A9, “NOVEL PYRIMIDINE DERIVATIVE, AND COMPOSITION FOR PREVENTING OR TREATING NEURODEGENERATIVE DISEASES AND CANCER, COMPRISING SAME” (WHAN IN PHARMACEUTICAL CO., LTD., priority 2020, published 2024).
